From PubChem BioAssay (NCI)
Several values for one entry are separate records, joined by “and”; a condition that tells them apart may be missing. Equal entries are not always repeated.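 Cultured in 96-well plates, cells were exposed to test compound for 48 hours across five concentrations. GI50: concentration for 50% inhibition of growth. At the TGI there is no net growth.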

Columns and labels:
Experiment in all cases: NCI tumour cell line growth inhibition, 48 h
[1] = tested on: M14 melanoma
[2] = tested on: NCI-H226 lung
[3] = tested on: BT-549 breast
[4] = tested on: KM12 colon
[5] = tested on: SN12C renal
[6] = tested on: MDA-MB-231 breast
[7] = tested on: UACC-62 melanoma
[8] = tested on: SF-295 CNS

Compound	GI50 [1]	TGI [1]	GI50 [2]	TGI [2]	GI50 [3]	TGI [3]	GI50 [4]	TGI [4]	GI50 [5]	TGI [5]	GI50 [6]	TGI [6]	GI50 [7]	TGI [7]	GI50 [8]	TGI [8]
O=C(Nc1cc(C(F)(F)F)cc(C(F)(F)F)c1)c1cc(Cl)ccc1O	0.291 µM and 0.273 µM	1.25 µM and 1.54 µM	0.262 µM and 0.317 µM	0.992 µM and 1.59 µM	0.206 µM and 0.213 µM	0.714 µM and 0.712 µM	0.318 µM and 0.312 µM	1.14 µM and 1.12 µM	0.224 µM and 0.202 µM	> 2.73 µM and 1.54 µM	0.241 µM and 0.225 µM	> 2.17 µM and 2.63 µM	0.129 µM and 0.1 µM	0.668 µM and 0.595 µM	0.179 µM and 0.173 µM	0.479 µM and 0.402 µM
CN(C)C1CCN(C(=O)c2ccc(NC(=O)Nc3ccc(-c4nc(N5CCOCC5)c5cccn5n4)cc3)cc2)CC1	0.281 µM	9.15 µM	0.0435 µM	2.99 µM	0.177 µM	2.25 µM	0.155 µM	7.69 µM	0.0365 µM	14.7 µM	0.0491 µM	11.1 µM	0.0444 µM	0.287 µM	0.0719 µM	0.512 µM
O=c1c(F)cn(Cc2ccc(C34CC5CC(CC(C5)C3)C4)c(O)c2)c(=O)n1Cc1ccc(C23CC4CC(CC(C4)C2)C3)c(O)c1	18.4 µM	45.3 µM	12.9 µM	26.1 µM	13.1 µM	31.3 µM	15.5 µM	32.8 µM	10.5 µM	22.3 µM	12.3 µM	24.8 µM	15.9 µM	29.5 µM	16.9 µM	32.5 µM
COc1cc(C(=O)N2CCN(C(=O)c3cc(OC)c(OC)c(OC)c3)C2=S)cc(OC)c1OC	16.8 µM	34 µM	19.5 µM	39.1 µM	17.4 µM	34.1 µM	14.2 µM	39.7 µM	17.1 µM	35.7 µM	16.7 µM	36 µM	14.9 µM	29.9 µM	19 µM	43.7 µM
COc1cc(N(CCC#N)CCC#N)ccc1/C(N=Nc1ccc(Cl)cc1)=N/NC(=O)c1cc(Br)ccc1O	58.5 µg/mL	> 150 µg/mL	32.4 µg/mL	128 µg/mL	140 µg/mL	> 150 µg/mL	48 µg/mL	129 µg/mL	88.4 µg/mL	> 150 µg/mL	38.8 µg/mL	> 150 µg/mL	112 µg/mL	> 150 µg/mL	79.4 µg/mL	> 150 µg/mL
CCN(CC)CCNc1nc(N)c(C#N)c(C#N)c1C#N		> 10 µM		> 10 µM		> 10 µM		> 10 µM		> 10 µM		> 10 µM		> 10 µM		> 10 µM
COc1ccc2nc3ccccc3c(NCc3ccc(F)cc3)c2c1	2.23 µM	8.18 µM	1.81 µM	9.28 µM	4.75 µM	11.4 µM	2.42 µM	8.88 µM	1.83 µM	7.32 µM	1.85 µM	7.26 µM	3.48 µM	10.2 µM	1.58 µM	6.48 µM
Clc1cc2c(c(CSc3nc4ccccc4n4cccc34)c1)OCOC2	> 100 µM	> 100 µM	14.3 µM	> 100 µM	78.1 µM	> 100 µM	> 100 µM	> 100 µM	> 100 µM	> 100 µM	12.7 µM	> 100 µM	76.5 µM	> 100 µM	11.7 µM	39.9 µM
COC(=O)[C@]12CC[C@@H](C)[C@H](C)[C@@H]1C1=CC[C@@H]3[C@@]4(C)C[C@@H](O)[C@H](O)[C@@](C)(CO)C4=CC[C@@]3(C)[C@]1(C)CC2	17.5 µM	33.6 µM	20.1 µM	40.4 µM	16.2 µM	31.7 µM	14.8 µM	32.5 µM			16.3 µM	34.4 µM			16.7 µM	33.1 µM
CN1C(=O)c2ccccc2NC(=O)C12O[C@@H]2c1ccccc1 (stereo partly specified)		> 100 µM				> 100 µM		> 100 µM		> 100 µM		> 100 µM		> 100 µM		> 100 µM
NC(N)=N/N=C/c1c(Cl)cccc1Cl			24.1 µM	> 100 µM	16 µM	44.9 µM	19.9 µM	59.1 µM	36.6 µM	> 100 µM			18 µM	37.3 µM	12.4 µM	30.2 µM
COc1ccc(-c2nnc3n(C)c(=O)c4ccccc4n23)cc1N	0.0475 µM	> 100 µM	> 100 µM	> 100 µM	> 100 µM	> 100 µM	0.0499 µM	> 100 µM	6.83 µM	> 100 µM	3.92 µM	> 100 µM			0.0499 µM	> 100 µM
Cc1nc(Nc2cccnc2)sc1C(=O)/C=C/c1ccc(F)cc1	3.02 µM	12.9 µM			2.83 µM	8.87 µM	2.04 µM	4.61 µM	3.17 µM	> 100 µM	4.03 µM	> 100 µM	1.99 µM	4.99 µM	3.09 µM	18.2 µM
NC1CCN(Cc2ccccc2)CC1	> 100 µM	> 100 µM					> 100 µM	> 100 µM	> 100 µM	> 100 µM	> 100 µM	> 100 µM	> 100 µM	> 100 µM	> 100 µM	> 100 µM
Nc1ncn([C@@H]2O[C@H](CO)[C@@H](O)[C@H]2O)c(=O)n1	1.38 µM	10.8 µM	1.39 µM	9.63 µM					0.594 µM	> 100 µM	1.61 µM	> 100 µM	0.658 µM	8.67 µM	2.28 µM	58.7 µM
COc1cnc2c(c1)C(=O)c1c-2n(CCCNC2=NCCS2)c(=O)c2cc([N+](=O)[O-])ccc12	< 0.01 µM	1.16 µM			0.0544 µM	1.92 µM	1.11 µM	3.13 µM							0.0132 µM	0.265 µM
